The subject of series [1] is Pseudomonas aeruginosa NCTC 10490. Put plainly: Minimal inhibitory concentration, agar plate dilution method. Format: cell-based. The note with it: NCTC10490. The method, then: (§1) The antibacterial activities of the compounds of the present invention against various bacteria (inoculum size : 10^6 cells/ml) were tested by the agar plate dilution method, and the results are shown in the following Table 1.

Series [2] deals with Escherichia coli NIHJ JC-2. The series is described as above. Format: cell-based. The note with it: NIHJJC2. The method, then:
as §1

Series [3] deals with Serratia marcescens IID 618. The description is as above. Format: cell-based. To be noted: IID618. The method, then:
as §1

In series [4] the test system is Klebsiella pneumoniae T 25. The series is described as above. Format: cell-based. The note with it: T25. The method, then: as §1
For series [5], the system named is Enterobactor cloacae IFO 13525. The description is as above. In kind it is cell-based. The method, then:
as §1

A short description of series [6]: Concentration of the compound in blood after oral administration to rats (bioassay). Format: in vivo, Male wister rats. The note with it: rat, 50 mg/kg. The method, then:
Male wister rats (7 weeks old) were administered orally with the test compound, and the change of the concentration of the compound in blood was measured.
Dosage of the test compound: 50 mg/kg
Quantitative method: Bioassy
test bacterium: Escherichia coli SC507)

Where [7] appears, read: Pseudomonas aeruginosa NCTC 10490, inoculum size 10^6 cells/ml, read-out: MIC.
Setting [8] is: Escherichia coli NIHJ JC-2, inoculum size 10^6 cells/ml, read-out: MIC.
[9] abbreviates: Serratia marcescens IID 618, inoculum size 10^6 cells/ml, read-out: MIC.
[10] abbreviates: Klebsiella pneumoniae T 25, inoculum size 10^6 cells/ml, read-out: MIC.
The mark [11] stands for this setting: Enterobactor cloacae IFO 13525, inoculum size 10^6 cells/ml, read-out: MIC.

Structures are written as SMILES. ≈ marks a conversion by molar mass, not a printed value. Counter-ions that a name gives are not always drawn. Like-named read-outs stand apart in the source and are kept apart here.

For orientation: MIC means the smallest concentration in the dilution series that meets the test's criterion for growth inhibition.

Turning to `CCOC(=O)/C=C\SC1=C(C(=O)O)N2C(=O)[C@@H](NC(=O)/C(=N\OCC(=O)O)c3csc(N)n3)[C@H]2SC1` [B], the MIC in series [1] (setting [7]) was 3.13 µg/mL (≈ 5.61 µM); in series [2] (setting [8]) it was 0.2 µg/mL (≈ 0.359 µM); in series [3] (setting [9]), 0.39 µg/mL (≈ 0.699 µM); in series [4] (setting [10]), 0.39 µg/mL (≈ 0.699 µM); in series [5] (setting [11]), 12.5 µg/mL (≈ 22.4 µM). The molecule also registered a concentration at 1 h in series [6] of 34000 ng/mL. The molecule also displayed a concentration at 2 h in series [6] of 37100 ng/mL. In addition, the concentration at 4 h in series [6] is 31000 ng/mL.

As to `COC(=O)/C=C\SC1=C(C(=O)O)N2C(=O)[C@@H](NC(=O)/C(=N\OCC(=O)O)c3csc(N)n3)[C@H]2SC1` [A, 7β-{α-(2-aminothiazole-4-yl)-β-[(Z)-carboxymethoxyimino]acetamido)}-3[(Z)-2-methoxycarbonylvinylthio]-3-cephem-4-carboxylic acid sodium salt], the MIC amounted to 25 µg/mL in series [1] (setting [7]); 0.2 µg/mL in series [2] (setting [8]); 1.56 µg/mL in series [3] (setting [9]); 0.39 µg/mL in series [4] (setting [10]); 25 µg/mL in series [5] (setting [11]). This molecule yielded a concentration at 1 h in series [6] of 37800 ng/mL. In series [6], this molecule gave a concentration at 2 h of 38900 ng/mL. Besides, the concentration at 4 h in series [6] came out at 32500 ng/mL.

As to `C=CCOC(=O)/C=C\SC1=C(C(=O)[O-])N2C(=O)[C@@H](NC(=O)/C(=N\OCC(=O)[O-])c3csc(N)n3)[C@H]2SC1.[Na+].[Na+]` [D, 7β-{α-(2-aminothiazole-4-yl)-α-[(Z)-carboxymethoxyimino]acetamido}-3-[(Z)-2-allyloxycarbonylvinylthio]-3-cephem-4-carboxylic acid sodium salt], the MIC in series [1] (Pseudomonas aeruginosa) was 6.25 µg/mL; in series [2] (Escherichia coli), 0.39 µg/mL; in series [3] (Serratia marcescens) it was 0.39 µg/mL; in series [4] (Klebsiella pneumoniae) it was 0.39 µg/mL; in series [5], 12.5 µg/mL.

As to `CC1=C(C(=O)O)N2C(=O)[C@@H](NC(=O)[C@H](N)c3ccccc3)[C@H]2SC1` [YY, Cefalexin, reference compound], the MIC in series [1] (Pseudomonas aeruginosa) was greater than 100 µg/mL; in series [2] (Escherichia coli), 12.5 µg/mL (≈ 36 µM); in series [3] (Serratia marcescens), greater than 100 µg/mL; in series [4] (Klebsiella pneumoniae), 100 µg/mL (≈ 288 µM); in series [5], greater than 100 µg/mL.

For `CC(C)OC(=O)/C=C\SC1=C(C(=O)O)N2C(=O)[C@@H](NC(=O)/C(=N\OCC(=O)O)c3csc(N)n3)[C@H]2SC1` [C], the MIC in series [1] (setting [7]) was 12.5 µg/mL (≈ 21.9 µM); in series [2] (setting [8]), 0.39 µg/mL (≈ 0.682 µM); in series [3] (setting [9]), 0.39 µg/mL (≈ 0.682 µM); in series [4] (setting [10]), 0.39 µg/mL (≈ 0.682 µM); in series [5] (setting [11]) it was 6.25 µg/mL (≈ 10.9 µM).

The record behind these values is patent publication US4699981A, “Cephalosporin derivatives” (Taisho Pharmaceutical Co., Ltd., priority 1985, dated 1987).
